Data published in patent publication US20080207705A1, “Heteroaryl-Imidazole Derivatives as Cannabinoid CB1 Receptor Antagonists” (Green Cross Corporation, priority 2007, published 2008).

target: T1, rat CB-1 receptor (Rattus norvegicus, UniProt P20272); assay: rat CB-1 receptor binding protocol with [3H]CP-55940; conditions: not given
T1 construct: The tissue obtained from the brain of SD rats was homogenized; from tissue; host or cells: brain of SD rats (membrane pellet of homogenate)
T1 sequence (P20272 whole entry): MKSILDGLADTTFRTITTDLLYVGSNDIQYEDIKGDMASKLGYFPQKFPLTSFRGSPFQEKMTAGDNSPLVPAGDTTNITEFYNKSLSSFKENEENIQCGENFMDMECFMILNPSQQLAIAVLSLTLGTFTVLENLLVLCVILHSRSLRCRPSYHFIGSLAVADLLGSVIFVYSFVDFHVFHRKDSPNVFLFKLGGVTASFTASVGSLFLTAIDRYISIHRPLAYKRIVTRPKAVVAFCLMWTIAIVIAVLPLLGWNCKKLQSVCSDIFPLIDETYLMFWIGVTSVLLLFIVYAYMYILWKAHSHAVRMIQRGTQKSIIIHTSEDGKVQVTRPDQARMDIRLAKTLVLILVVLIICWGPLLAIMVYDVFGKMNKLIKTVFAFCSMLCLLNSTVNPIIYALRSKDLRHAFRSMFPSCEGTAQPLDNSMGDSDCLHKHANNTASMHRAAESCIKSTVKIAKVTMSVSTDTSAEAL

SMILES	IC50 [nM]
CCc1c(-c2nnc(C3(C(F)(F)F)CCC3)s2)nc(-c2ccccc2Cl)n1-c1ccc(Br)cc1 [Example 147, 2-(1-(4-Bromophenyl)-2-(2-chlorophenyl)-5-ethyl-1H-imidazol-4-yl)-5-(1-(trifluoromethyl)cyclobutyl)-1,3,4-thiadiazole]	5.33
CC(C)(C)c1nnc(-c2nc(-c3ccccc3Cl)n(-c3ccc(Br)cc3)c2Cn2cncn2)s1 [Example 168, 2-(5-((1H-1,2,4-Triazol-1-yl)methyl)-1-(4-bromophenyl)-2-(2-chlorophenyl)-1H-imidazol-4-yl)-5-tert-butyl-1,3,4-thiadiazole]	4.01

same assay, conditions: [3H]CP-55940, brain tissue of SD rats, 30 °C for 60 min; read-out: IC50

IC50 [nM]	SMILES
18.5	Cc1c(-c2nnc(C3(c4ccc(Cl)cc4)CC3)s2)nc(-c2ccc(Cl)cc2Cl)n1-c1ccc(Br)cc1 [Example 138, 2-(1-(4-Bromophenyl)-2-(2,4-dichlorophenyl)-5-methyl-1H-imidazol-4-yl)-5-(1-(4-chlorophenyl)cyclopropyl)-1,3,4-thiadiazole]
15.9	CCc1c(-c2nnc(C3(C(F)(F)F)CC3)s2)nc(-c2ccc(Cl)cc2Cl)n1-c1ccc(Br)cc1 [Example 139, 2-(1-(4-Bromophenyl)-2-(2,4-dichlorophenyl)-5-ethyl-1H-imidazol-4-yl)-5-(1-(trifluoromethyl)cyclopropyl)-1,3,4-thiadiazole]
6.74	CCc1c(-c2nnc(C3(C(F)(F)F)CCC3)s2)nc(-c2ccc(Cl)cc2Cl)n1-c1ccc(Br)cc1 [Example 140, 2-(1-(4-Bromophenyl)-2-(2,4-dichlorophenyl)-5-ethyl-1H-imidazol-4-yl)-5-(1-(trifluoromethyl)cyclobutyl)-1,3,4-thiadiazole]
10.7	Cc1c(-c2nnc(C(C)(C)C)s2)nc(-c2ccccc2Cl)n1-c1ccc(Br)cc1 [Example 141, 2-(1-(4-Bromophenyl)-2-(2-chlorophenyl)-5-methyl-1H-imidazol-4-yl)-5-tert-butyl-1,3,4-thiadiazole]
12.3	Cc1c(-c2nnc(C3(C(F)(F)F)CC3)s2)nc(-c2ccccc2Cl)n1-c1ccc(Br)cc1 [Example 142, 2-(1-(4-Bromophenyl)-2-(2-chlorophenyl)-5-methyl-1H-imidazol-4-yl)-5-(1-(trifluoromethyl)cyclopropyl)-1,3,4-thiadiazole]
2.18	Cc1c(-c2nnc(C3(c4ccc(Cl)cc4)CC3)s2)nc(-c2ccccc2Cl)n1-c1ccc(Br)cc1 [Example 144, 2-(1-(4-Bromophenyl)-2-(2-chlorophenyl)-5-methyl-1H-imidazol-4-yl)-5-(1-(4-chlorophenyl)cyclopropyl)-1,3,4-thiadiazole]
11.5	CCc1c(-c2nnc(C3(C(F)(F)F)CC3)s2)nc(-c2ccccc2Cl)n1-c1ccc(Br)cc1 [Example 146, 2-(1-(4-Bromophenyl)-2-(2-chlorophenyl)-5-ethyl-1H-imidazol-4-yl)-5-(1-(trifluoromethyl)cyclopropyl)-1,3,4-thiadiazole]
4.93	CCc1c(-c2nnc(C3(c4ccc(Cl)cc4)CC3)s2)nc(-c2ccccc2Cl)n1-c1ccc(Br)cc1 [Example 148, 2-(1-(4-Bromophenyl)-2-(2-chlorophenyl)-5-ethyl-1H-imidazol-4-yl)-5-(1-(4-chlorophenyl)cyclopropyl)-1,3,4-thiadiazole]
20.9	CC(C)(C)c1nnc(-c2nc(-c3ccc(Cl)cc3Cl)n(-c3ccc(Br)cc3)c2Cn2cncn2)s1 [Example 164, 2-(5-((1H-1,2,4-Triazol-1-yl)methyl)-1-(4-bromophenyl)-2-(2,4-dichlorophenyl)-1H-imidazol-4-yl)-5-tert-butyl-1,3,4-thiadiazole]
5.59	FC(F)(F)C1(c2nnc(-c3nc(-c4ccc(Cl)cc4Cl)n(-c4ccc(Br)cc4)c3Cn3cncn3)s2)CC1 [Example 165, 2-(5-((1H-1,2,4-Triazol-1-yl)methyl)-1-(4-bromophenyl)-2-(2,4-dichlorophenyl)-1H-imidazol-4-yl)-5-(1-(trifluoromethyl)cyclopropyl)-1,3,4-thiadiazole]
1.7	FC(F)(F)C1(c2nnc(-c3nc(-c4ccc(Cl)cc4Cl)n(-c4ccc(Br)cc4)c3Cn3cncn3)s2)CCC1 [Example 166, 2-(5-((1H-1,2,4-Triazol-1-yl)methyl)-1-(4-bromophenyl)-2-(2,4-dichlorophenyl)-1H-imidazol-4-yl)-5-(1-(trifluoromethyl)cyclobutyl)-1,3,4-thiadiazole]
3.91	Clc1ccc(C2(c3nnc(-c4nc(-c5ccc(Cl)cc5Cl)n(-c5ccc(Br)cc5)c4Cn4cncn4)s3)CC2)cc1 [Example 167, 2-(5-((1H-1,2,4-Triazol-1-yl)methyl)-1-(4-bromophenyl)-2-(2,4-dichlorophenyl)-1H-imidazol-4-yl)-5-(1-(4-chlorophenyl)cyclopropyl)-1,3,4-thiadiazole]
4.73	FC(F)(F)C1(c2nnc(-c3nc(-c4ccccc4Cl)n(-c4ccc(Br)cc4)c3Cn3cncn3)s2)CC1 [Example 169, 2-(5-((1H-1,2,4-Triazol-1-yl)methyl)-1-(4-bromophenyl)-2-(2-chlorophenyl)-1H-imidazol-4-yl)-5-(1-(trifluoromethyl)cyclopropyl)-1,3,4-thiadiazole]

Continued, compound first:

SMILES	IC50 [nM]
CCCc1c(-c2nnc(C3(c4ccc(Cl)cc4)CC3)s2)nc(-c2ccc(Cl)cc2Cl)n1-c1ccc(Br)cc1 [Example 123, 2-(1-(4-Bromophenyl)-2-(2,4-dichlorophenyl)-5-propyl-1H-imidazol-4-yl)-5-(1-(4-chlorophenyl)cyclopropyl)-1,3,4-thiadiazole]	4.48
CCCc1c(-c2nnc(C3(c4ccc(Cl)cc4)CCC3)s2)nc(-c2ccc(Cl)cc2Cl)n1-c1ccc(Br)cc1 [Example 124, 2-(1-(4-Bromophenyl)-2-(2,4-dichlorophenyl)-5-propyl-1H-imidazol-4-yl)-5-(1-(4-chlorophenyl)cyclobutyl)-1,3,4-thiadiazole]	1.79
CCCc1c(-c2nnc(C(C)(C)C)s2)nc(-c2ccc(Cl)cc2Cl)n1-c1ccc(Cl)cc1 [Example 125, 2-tert-Butyl-5-(1-(4-chlorophenyl)-2-(2,4-dichlorophenyl)-5-propyl-1H-imidazol-4-yl)-1,3,4-thiadiazole]	7.94
CCCc1c(-c2nnc(C3CCC3)s2)nc(-c2ccc(Cl)cc2Cl)n1-c1ccc(Cl)cc1 [Example 126, 2-(1-(4-Chlorophenyl)-2-(2,4-dichlorophenyl)-5-propyl-1H-imidazol-4-yl)-5-cyclobutyl-1,3,4-thiadiazole]	13.5
CCCc1c(-c2nnc(C3(c4ccc(Cl)cc4)CC3)s2)nc(-c2ccc(Cl)cc2Cl)n1-c1ccc(Cl)cc1 [Example 127, 2-(1-(4-Chlorophenyl)-2-(2,4-dichlorophenyl)-5-propyl-1H-imidazol-4-yl)-5-(1-(4-chlorophenyl)cyclopropyl)-1,3,4-thiadiazole]	3.43
CCCc1c(-c2nnc(C3(c4ccc(Cl)cc4)CCC3)s2)nc(-c2ccc(Cl)cc2Cl)n1-c1ccc(Cl)cc1 [Example 128, 2-(1-(4-Chlorophenyl)-2-(2,4-dichlorophenyl)-5-propyl-1H-imidazol-4-yl)-5-(1-(4-chlorophenyl)cyclobutyl)-1,3,4-thiadiazole]	3.5
CCCc1c(-c2nnc(C3CCCCC3)s2)nc(-c2ccc(Cl)cc2Cl)n1-c1ccc(Cl)cc1 [Example 129, 2-(1-(4-Chlorophenyl)-2-(2,4-dichlorophenyl)-5-propyl-1H-imidazol-4-yl)-5-cyclohexyl-1,3,4-thiadiazole]	51.5
CCc1c(-c2nnc(C3(c4ccc(Cl)cc4)CC3)s2)nc(-c2ccc(Cl)cc2Cl)n1-c1ccc(Br)cc1 [Example 130, 2-(1-(4-Bromophenyl)-2-(2,4-dichlorophenyl)-5-ethyl-1H-imidazol-4-yl)-5-(1-(4-chlorophenyl)cyclopropyl)-1,3,4-thiadiazole]	4.53
CCc1c(-c2nnc(C3(c4ccc(Cl)cc4)CCC3)s2)nc(-c2ccc(Cl)cc2Cl)n1-c1ccc(Br)cc1 [Example 131, 2-(1-(4-Bromophenyl)-2-(2,4-dichlorophenyl)-5-ethyl-1H-imidazol-4-yl)-5-(1-(4-chlorophenyl)cyclobutyl)-1,3,4-thiadiazole]	4.79
CCc1c(-c2nnc(C3(c4ccc(OC)cc4)CC3)s2)nc(-c2ccc(Cl)cc2Cl)n1-c1ccc(Br)cc1 [Example 132, 2-(1-(4-Bromophenyl)-2-(2,4-dichlorophenyl)-5-ethyl-1H-imidazol-4-yl)-5-(1-(4-methoxyphenyl)cyclopropyl)-1,3,4-thiadiazole]	9.21
CCc1c(-c2nnc(C3(c4ccc(C)cc4)CC3)s2)nc(-c2ccc(Cl)cc2Cl)n1-c1ccc(Br)cc1 [Example 133, 2-(1-(4-Bromophenyl)-2-(2,4-dichlorophenyl)-5-ethyl-1H-imidazol-4-yl)-5-(1-p-tolylcyclopropyl)-1,3,4-thiadiazole]	5.72
CCc1c(-c2nnc(C3(c4ccc(Cl)cc4Cl)CC3)s2)nc(-c2ccc(Cl)cc2Cl)n1-c1ccc(Br)cc1 [Example 134, 2-(1-(4-Bromophenyl)-2-(2,4-dichlorophenyl)-5-ethyl-1H-imidazol-4-yl)-5-(1-(2,4-dichlorophenyl)cyclopropyl)-1,3,4-thiadiazole]	6.57
CCc1c(-c2nnc(C3(c4ccc(Cl)cc4)CCCC3)s2)nc(-c2ccc(Cl)cc2Cl)n1-c1ccc(Br)cc1 [Example 135, 2-(1-(4-Bromophenyl)-2-(2,4-dichlorophenyl)-5-ethyl-1H-imidazol-4-yl)-5-(1-(4-chlorophenyl)cyclopentyl)-1,3,4-thiadiazole]	1.87
Cc1c(-c2nnc(C3(C(F)(F)F)CC3)s2)nc(-c2ccc(Cl)cc2Cl)n1-c1ccc(Br)cc1 [Example 136, 2-(1-(4-Bromophenyl)-2-(2,4-dichlorophenyl)-5-methyl-1H-imidazol-4-yl)-5-(1-(trifluoromethyl)cyclopropyl)-1,3,4-thiadiazole]	47.1
Cc1c(-c2nnc(C3(C(F)(F)F)CCC3)s2)nc(-c2ccc(Cl)cc2Cl)n1-c1ccc(Br)cc1 [Example 137, 2-(1-(4-Bromophenyl)-2-(2,4-dichlorophenyl)-5-methyl-1H-imidazol-4-yl)-5-(1-(trifluoromethyl)cyclobutyl)-1,3,4-thiadiazole]	8.52
